The source of these data is US20040197416A1, “Nanocapsules containing a steroid for cosmetic compositions” (priority 2001, published 2004).

Each structure is given as a SMILES string.

Data set [1] relates to fibroblasts. Particulars: cited from earlier work.
Data set [2] concerns human keratinocytes. Particulars: cited from earlier work.
Data set [3] deals with skin. As to conditions: rats; cited from earlier work.
A short description of data set [4]: Solubility of DHEA in various oily solvents (excess DHEA, supernatant analysed by HPLC). In kind it is physicochemical. As to conditions: for RT solubility: room temperature (25° C.), after 24 hours; for solubility of DHEA: comparative. How it is done:
The solubility measurement was performed in the following manner. DHEA was dispersed, in excess, in the solvent under consideration, and preheated to 60° C. This temperature was maintained for one hour with stirring using a magnetic bar. The suspension was then cooled to room temperature (RT, 25° C.). After 24 hours, the suspension was centrifuged to remove the undissolved DHEA crystals. The supernatant was taken up and the absence of DHEA crystals was checked by cross-polarized optical microscopy. This supernatant was then analysed by HPLC. It is considered that the amount of DHEA detected corresponds to its maximum solubility in the solvent under consideration.

Consider `C[C@]12CC[C@H](O)CC1=C[C@@H](O)[C@@H]1[C@@H]2CC[C@]2(C)C(=O)CC[C@@H]12` [7α-hydroxy DHEA], for which the proliferation of fibroblasts result in data set [1] is reported as “increase”. In addition, in data set [2], the “viability of human keratinocytes” value was “increase”. Also, in data set [3], the “elastin and collagen content of the skin” value is recorded as “increases”; the “thickness of the dermis” value is given as “increases”.

On to `C[C@]12CC[C@H](O)CC1=CC[C@@H]1[C@@H]2CC[C@]2(C)C(=O)CC[C@@H]12` [DHEA, dehydroepiandrosterone], for which the RT solubility is 1.77% in data set [4] (DHEA in Capric/caprylic triglycerides); 1.37% in data set [4] (DHEA in Isopropyl palmitate); 1.30% in data set [4] (DHEA in Isostearyl neopentanoate); 1.10% in data set [4] (DHEA in Jojoba oil); 1% in data set [4] (DHEA in Octyl palmitate); 2.68% in data set [4] (DHEA in PPG-15 stearyl ether). Also, the figures for the RT solubility in data set [4] (DHEA in Sesame oil) and in data set [4] (DHEA in α-Tocopherol) were 1.40% and 1.65%, respectively. Also, the “solubility of DHEA” value in data set [4] (in cetearyl isononanoate) is 0.83%; in data set [4] (in cyclopentasiloxane), 0.04%; in data set [4] (in liquid paraffin), 0%; in data set [4] (in polydimethylsiloxane (200-350 cs)), 0.17%; in data set [4] (in squalane), 0.10%.
